The record followed here is paper PMC4503722, “Novel Phenotypic Outcomes Identified for a Public Collection of Approved Drugs from a Publicly Accessible Panel of Assays” (PLoS ONE, 2015).

Assay [1] has as its system endothelial tube formation in co-cultures of ECFCs and ADSCs treated with VEGF. The assay can be described thus: cells. It is filed as cell-based, human.
A further assay has as its system SW480. Briefly: cells. It is filed as cell-based.
Another assay relates to RKO. Briefly: cells. It is filed as cell-based.
For another assay, the system named is Colo320. Briefly: cells. It is filed as cell-based.
Another assay concerns HT-29. The assay can be described thus: cells. The class given is cell-based.
The subject of a further assay is DLD-1. The assay can be described thus: cells. The class given is cell-based.
A further assay has as its system HCT116. The assay can be described thus: cells. The class given is cell-based. Conditions: basal.
The subject of assay [2] is ECFC/ADSC co-culture cell nuclei number.
Assay [3] concerns HCT116 cells treated with a GSK3β inhibitor. The assay can be described thus: cells. It is filed as cell-based. Conditions: for IC50/EC50, GSK3b inh pretreated_Viability ATP HCT116 (assay number 26): GSK3b inh pretreated.
A further assay concerns SNU-C1. The assay can be described thus: cells. The class given is cell-based.
Where [4] appears, read: assay number 24, concentration response.
[5] abbreviates: assay number 29, concentration response.
The mark [6] stands for this setting: assay number 27, concentration response.
Setting [7] is: assay number 28, concentration response.
Setting [8] is: assay number 23, concentration response.
[9] abbreviates: assay number 25, concentration response.
Setting [10] is: assay number 26, GSK3b inhibitor pretreated, concentration response.
Where [11] appears, read: assay number 30, concentration response.

As a reminder, the IC50 is the concentration at which inhibition is half-maximal.

Take `CN1CCN(CCCN2c3ccccc3Sc3ccc(S(=O)(=O)N(C)C)cc32)CC1` [NCGC00179625-03]: in [1], the “IC50/EC50, VEGF_ADSC\ECFC Angio CD31 TubeArea (assay number 2)” value is > 10 µM. The “IC50/EC50, Basal_Viability ATP SW480 (assay number 24)” value in the assay with SW480 (basal) is on record as > 20 µM. Also, the “IC50/EC50, Basal_Viability ATP RKO (assay number 29)” value in the assay with RKO (basal) is 5.9932 µM. Further, the “IC50/EC50, Basal_Viability ATP Colo 320 (assay number 27)” value with Colo320 (basal) amounted to 8.1661 µM. In addition, in the assay on HT-29 (basal), the “IC50/EC50, Basal_Viability ATP HT-29 (assay number 28)” value is > 20 µM. Also, the “IC50/EC50, Basal_Viability ATP DLD-1 (assay number 23)” value in the assay with DLD-1 (basal) was 14.5523 µM. For the same compound, the “IC50/EC50, Basal_Viability ATP HCT116 (assay number 25)” value with HCT116 is > 20 µM. Also, the “IC50/EC50, VEGF_ADSC\ECFC Angio Hoechst NucArea (assay number 3)” value in [2] is reported as > 10 µM. For the same compound, in assay [3], the “IC50/EC50, GSK3b inh pretreated_Viability ATP HCT116 (assay number 26)” value is reported as > 20 µM. Moreover, the “IC50/EC50, Basal_Viability ATP SNU-C1 (assay number 30)” value in the assay on SNU-C1 (basal) came out at 2.1198 µM.

For the compound `N/C(=N\N=C\c1ccc(Cl)cc1)N/N=C/c1ccc(Cl)cc1` [NCGC00181026-02], in assay [1], the “IC50/EC50, VEGF_ADSC\ECFC Angio CD31 TubeArea (assay number 2)” value is on record as > 10 µM. Besides, in the assay with SW480 (basal), the “IC50/EC50, Basal_Viability ATP SW480 (assay number 24)” value is on record as 0.2252 µM. For the same compound, the “IC50/EC50, Basal_Viability ATP RKO (assay number 29)” value in the assay with RKO (basal) amounted to 0.47 µM. In addition, in the assay on Colo320 (basal), the “IC50/EC50, Basal_Viability ATP Colo 320 (assay number 27)” value is given as 0.4583 µM. Further, the “IC50/EC50, Basal_Viability ATP HT-29 (assay number 28)” value in the assay with HT-29 (basal) came to 0.6811 µM. In addition, the “IC50/EC50, Basal_Viability ATP DLD-1 (assay number 23)” value with DLD-1 (basal) amounted to 0.6538 µM. Also, the “IC50/EC50, Basal_Viability ATP HCT116 (assay number 25)” value in the assay with HCT116 was found to be 0.394 µM. Besides, in [2], the “IC50/EC50, VEGF_ADSC\ECFC Angio Hoechst NucArea (assay number 3)” value is given as > 10 µM. In addition, the “IC50/EC50, GSK3b inh pretreated_Viability ATP HCT116 (assay number 26)” value in assay [3] was 0.3442 µM. The “IC50/EC50, Basal_Viability ATP SNU-C1 (assay number 30)” value in the assay with SNU-C1 (basal) is 0.2795 µM.

Regarding `CC(C)(CO)[C@@H](O)C(=O)NCCC(=O)NCCSSCCNC(=O)CCNC(=O)[C@H](O)C(C)(C)CO` [NCGC00181028-02], the “VEGF_ADSC\ECFC Angio CD31 TubeArea IC50/EC50” value in [1] is given as > 10 µM. Further, the “Basal_Viability ATP SW480 IC50/EC50” value in the assay with SW480 (setting [4]) was > 20 µM. In addition, the “Basal_Viability ATP RKO IC50/EC50” value in the assay on RKO (setting [5]) is reported as > 20 µM. Also, the “Basal_Viability ATP Colo 320 IC50/EC50” value in the assay on Colo320 (setting [6]) is reported as > 20 µM. Further, in the assay with HT-29 (setting [7]), the “Basal_Viability ATP HT-29 IC50/EC50” value was > 20 µM. Moreover, the “Basal_Viability ATP DLD-1 IC50/EC50” value in the assay with DLD-1 (setting [8]) is listed as > 20 µM. Besides, in the assay on HCT116 (setting [9]), the “Basal_Viability ATP HCT116 IC50/EC50” value is given as > 20 µM. In addition, in assay [2], the “VEGF_ADSC\ECFC Angio Hoechst NucArea IC50/EC50” value is recorded as > 10 µM. Also, the “GSK3b inh pretreated_Viability ATP HCT116 IC50/EC50” value in assay [3] (setting [10]) is listed as > 20 µM. Further, in the assay on SNU-C1 (setting [11]), the “Basal_Viability ATP SNU-C1 IC50/EC50” value is on record as > 20 µM.

As to `CC(CC=O)CCCC(C)(C)O` (stereo not drawn) [NCGC00181031-03], the “VEGF_ADSC\ECFC Angio CD31 TubeArea IC50/EC50” value in [1] is > 10 µM. Moreover, the “Basal_Viability ATP SW480 IC50/EC50” value in the assay with SW480 (assay number 24, basal) is on record as > 20 µM. For the same compound, in the assay with RKO (assay number 29, basal), the “Basal_Viability ATP RKO IC50/EC50” value is > 20 µM. Besides, the “Basal_Viability ATP Colo 320 IC50/EC50” value in the assay with Colo320 (assay number 27, basal) is > 20 µM. In addition, the “Basal_Viability ATP HT-29 IC50/EC50” value in the assay with HT-29 (assay number 28, basal) is on record as > 20 µM. The “Basal_Viability ATP DLD-1 IC50/EC50” value in the assay on DLD-1 (assay number 23, basal) was > 20 µM. Further, in the assay with HCT116 (assay number 25), the “Basal_Viability ATP HCT116 IC50/EC50” value is given as > 20 µM. The “VEGF_ADSC\ECFC Angio Hoechst NucArea IC50/EC50” value in [2] is recorded as > 10 µM. Also, the “GSK3b inh pretreated_Viability ATP HCT116 IC50/EC50” value in [3] (assay number 26, GSK3b inhibitor pretreated) is listed as > 20 µM. The “Basal_Viability ATP SNU-C1 IC50/EC50” value with SNU-C1 (assay number 30, basal) was > 20 µM.

For `CC(C)[C@@H]1CC[C@@H](C)C[C@H]1OC(=O)c1ccccc1O` [NCGC00181042-02], in assay [1], the “VEGF_ADSC\ECFC Angio CD31 TubeArea IC50/EC50” value is given as > 10 µM. Also, the “Basal_Viability ATP SW480 IC50/EC50” value in the assay with SW480 (setting [4]) is listed as > 20 µM. In the assay on RKO (setting [5]), the “Basal_Viability ATP RKO IC50/EC50” value was > 20 µM. Besides, in the assay on Colo320 (setting [6]), the “Basal_Viability ATP Colo 320 IC50/EC50” value is > 20 µM. Besides, in the assay with HT-29 (setting [7]), the “Basal_Viability ATP HT-29 IC50/EC50” value is given as > 20 µM. Further, the “Basal_Viability ATP DLD-1 IC50/EC50” value with DLD-1 (setting [8]) is > 20 µM. Moreover, the “Basal_Viability ATP HCT116 IC50/EC50” value in the assay with HCT116 (setting [9]) was > 20 µM. Further, the “VEGF_ADSC\ECFC Angio Hoechst NucArea IC50/EC50” value in assay [2] is > 10 µM. In addition, the “GSK3b inh pretreated_Viability ATP HCT116 IC50/EC50” value in assay [3] (setting [10]) is > 20 µM. The “Basal_Viability ATP SNU-C1 IC50/EC50” value in the assay with SNU-C1 (setting [11]) is > 20 µM.

For `CC(C)=CCC/C(C)=C/CC/C(C)=C/CC/C=C(\C)CC/C=C(\C)CCC=C(C)C` [NCGC00181323-02], the IC50 in assay [1] (read-out: VEGF_ADSC\ECFC Angio CD31 TubeArea summarized IC50) is > 10 µM; in the assay on SW480 (assay number 24, basal, read-out: Basal_Viability ATP SW480 summarized IC50), > 20 µM; in the assay on RKO (assay number 29, basal, read-out: Basal_Viability ATP RKO summarized IC50), > 20 µM; with Colo320 (assay number 27, basal, read-out: Basal_Viability ATP Colo 320 summarized IC50) it was > 20 µM; in the assay on HT-29 (assay number 28, basal, read-out: Basal_Viability ATP HT-29 summarized IC50), > 20 µM; with DLD-1 (assay number 23, basal, read-out: Basal_Viability ATP DLD-1 summarized IC50), > 20 µM. In addition, the IC50 with HCT116 (assay number 25, read-out: Basal_Viability ATP HCT116 summarized IC50) is > 20 µM; in assay [2] (read-out: VEGF_ADSC\ECFC Angio Hoechst NucArea summarized IC50) it was > 10 µM; in assay [3] (assay number 26, GSK3b inhibitor pretreated, read-out: GSK3b inh pretreated_Viability ATP HCT116 summarized IC50), > 20 µM; with SNU-C1 (assay number 30, basal, read-out: Basal_Viability ATP SNU-C1 summarized IC50), > 20 µM.
